Values quoted from earlier work as cited in patent publication US8586590B2, “Compounds” (GlaxoSmithKline Intellectual Property Development Limited, priority 2009, dated 2013).

Legend:
neutrophils = conditions: treatment of neutrophils; Thelen et al. 1994

SMILES: O=c1cc(N2CCOCC2)oc2c(-c3ccccc3)cccc12 [LY294002]
- inhibitory activity on phospholipases (phospholipases): some inhibitory activity
- neutrophil migration (neutrophil): block
- superoxide release (neutrophil): block

SMILES: COC[C@H]1OC(=O)c2coc3c2[C@@]1(C)C1=C(C3=O)[C@@H]2CCC(=O)[C@@]2(C)C[C@H]1OC(C)=O [wortmannin]
- fMLP-induced respiratory burst response (neutrophils): prevents the fMLP-induced respiratory burst response
- neutrophil migration (neutrophil): block
- superoxide release (neutrophil): block
